{"source": "patent US20230137306A1", "about": "(priority 2020, published 2023)", "key": {"SARS-CoV-2 [1]": {"system": "SARS-CoV-2", "details": "human, in vivo; cited from earlier work"}, "COVID-19": {"system": "COVID-19", "details": "randomized controlled trials; cited from earlier work"}, "SARS-CoV": {"system": "SARS-CoV", "details": "cited from earlier work"}, "[2]": {"system": "RNA viruses such as norovirus, bunyavirus, arenavirus, flavivirus and Filovirus", "details": "cited from earlier work"}, "[3]": {"system": "membrane fusion caused by the S protein of MERS-CoV", "details": "cited from earlier work"}, "[4]": {"system": "membrane fusion induced by the S protein of SARS-CoV-2 (Calu-3 cells)", "type": "cell-based, human"}, "[5]": {"details": "healthy adult males, cited from earlier work"}, "[6]": {"assay": "Pharmacokinetics, intravenous drip in healthy adult males", "details": "20 mg intravenous drip over 90 minutes; corresponds to 61.5 ng/mL"}, "SARS-CoV-2 [7]": {"system": "SARS-CoV-2", "details": "read-out: 50% infection inhibitory concentration (IC50); Vero E6 cells, TMPRSS2 not expressed; Wang et al.; cited from earlier work"}, "[8]": {"system": "membrane fusion induced by the S protein of SARS-CoV-2 (H3255 cells)", "type": "cell-based, human"}, "[9]": {"system": "membrane fusion induced by the S protein of SARS-CoV-2", "type": "cell-based, human"}, "[10]": {"system": "membrane fusion induced by the S protein of SARS-CoV", "type": "cell-based, human", "details": "293FT target cells, nafamostat 0.1 μM to 10 μM, gabexsate 1 μM to 10 μM, FIG. 6"}}, "note": "Where a name gives a salt, the structure may show the parent alone. Read-outs that look alike come from different tables or passages of the source."}
{"compound": "CCN(CCO)CCCC(C)Nc1ccnc2cc(Cl)ccc12", "note": "(stereo not drawn) [Hydroxychloroquine]", "values": [{"measurement": "removal of SARS-CoV-2 from the nasopharynx", "setting": "SARS-CoV-2 [1]", "result": "removed at high frequency"}]}
{"compound": "CC(C)c1nc(CN(C)C(=O)N[C@H](C(=O)N[C@@H](Cc2ccccc2)C[C@H](O)[C@H](Cc2ccccc2)NC(=O)OCc2cncs2)C(C)C)cs1", "note": "[ritonavir]", "values": [{"measurement": "improvement of the symptoms of COVID-19", "setting": "COVID-19", "result": "could not improve the symptoms"}, {"measurement": "inhibitory activity against SARS-CoV", "setting": "SARS-CoV", "result": "exhibited inhibitory activity"}]}
{"compound": "NC(=O)c1nc(F)c[nH]c1=O", "note": "[favipiravir]", "values": [{"measurement": "antiviral activity against RNA viruses", "setting": "[2]", "result": "exhibits antiviral activity"}]}
{"compound": "N=C(N)c1ccc2cc(OC(=O)c3ccc(N=C(N)N)cc3)ccc2c1", "note": "[nafamostat mesylate, 6-amidinonaphthalen-2-yl 4-guanidinobenzoate bis(methanesulfonate)]", "values": [{"measurement": "inhibition of membrane fusion caused by the S protein of MERS-CoV", "setting": "[3]", "result": "effectively inhibits"}, {"measurement": "concentration lower than that used for the 293FT cells", "setting": "[4]", "result": "about 10 fold"}, {"measurement": "inhibitory activity against membrane fusion, stronger than that of camostat mesylate", "setting": "[4]", "result": "about 10 fold"}, {"measurement": "suppression of membrane fusion", "setting": "[4]", "result": "almost completely suppressed"}, {"measurement": "maximum blood concentration of unchanged agent", "setting": "[5]; 10 mg intravenous drip over 90 minutes", "result": 16.4, "unit": "ng/mL"}, {"measurement": "maximum blood concentration of unchanged agent", "setting": "[5]; 20 mg intravenous drip over 90 minutes", "result": 61.5, "unit": "ng/mL"}, {"measurement": "maximum blood concentration converted to", "setting": "[6]", "result": 114, "unit": "nM"}, {"measurement": "IC50", "setting": "SARS-CoV-2 [7]", "result": 22.5, "unit": "µM"}, {"measurement": "suppression of membrane fusion", "setting": "[8]", "result": "almost completely suppressed"}]}
{"compound": "CN(C)C(=O)COC(=O)Cc1ccc(OC(=O)c2ccc(NC(=N)N)cc2)cc1", "note": "[camostat mesylate, dimethylcarbamoylmethyl 4-(4-guanidinobenzoyloxy)phenylacetate monomethanesulfonate]", "values": [{"measurement": "inhibitory effect on membrane fusion (relative cell fusion, RL activity)", "setting": "[9]", "result": "membrane fusion was inhibited"}, {"measurement": "inhibitory effect relative to that of nafamostat mesylate", "setting": "[9]", "result": "about 1/10"}, {"measurement": "inhibitory effect on membrane fusion (relative cell fusion, RL activity)", "setting": "[10]", "result": "second highest inhibitory effect"}]}
{"compound": "Cc1cccc(C)c1OCC(=O)N[C@@H](Cc1ccccc1)[C@@H](O)C[C@H](Cc1ccccc1)NC(=O)[C@H](C(C)C)N1CCCNC1=O", "note": "[lopinavir]", "values": [{"measurement": "improvement of the symptoms of COVID-19", "setting": "COVID-19", "result": "could not improve the symptoms"}, {"measurement": "inhibitory activity against SARS-CoV", "setting": "SARS-CoV", "result": "exhibited inhibitory activity"}]}
